The assay deals with HeLa human cervical tumor cells (ATCC CCL-2). Briefly: Proliferation Assay (crystal violet staining, 4 days). Format: cell-based. To be noted: 96 h, 4 days incubation, read-out: EO-PROLIF-HELA. As to the method: Biological Assay: Proliferation Assay
Cultivated HeLa human cervical tumor cells (ATCC CCL-2) were plated at a density of 3000 cells/well in a 96-well multititer plate in 200 μl DMEM/HAMS F12 medium supplemented with 2 mM L-Glutamine and 10% fetal calf serum. After 24 hours, the cells of one plate (zero-point plate) were stained with crystal violet (see below), while the medium of the other plates was replaced by fresh culture medium (200 μl), to which the test substances were added in various concentrations (0 μM, as well as in the range of 0.01-30 μM; the final concentration of the solvent dimethyl sulfoxide was 0.5%). The cells were incubated for 4 days in the presence of test substances. Cell proliferation was determined by staining the cells with crystal violet: the cells were fixed by adding 20 μl/measuring point of an 11% glutaric aldehyde solution for 15 minutes at room temperature. After three washing cycles of the fixed cells with water, the plates were dried at room temperature. The cells were stained by adding 100 μl/measuring point of a 0.1% crystal violet solution (pH 3.0). After three washing cycles of the stained cells with water, the plates were dried at room temperature. The dye was dissolved by adding 100 μl/measuring point of a 10% acetic acid solution. The extinction was determined by photometry at a wavelength of 595 nm. The change of cell number, in percent, was calculated by normalization of the measured values to the extinction values of the zero-point plate (=0%) and the extinction of the untreated (0 μm) cells (=100%). The IC50 values were determined by means of a 4 parameter fit using the company's own software.

For the molecule `CC(C(=O)Nc1ccc(-c2ccc3ncc(N4CCN(Cc5cccnc5)CC4)nc3c2)cc1)c1ccccc1` (stereo not drawn) [Example 9.3, 2-phenyl-N-(4-{3-[4-(pyridin-3-ylmethyl)piperazin-1-yl]quinoxalin-6-yl}phenyl)propanamide], the IC50 came to 3000 nM.
On to `O=C(Cc1ccccc1)Nc1ccc(-c2ccc3ncc(N4CCOCC4)nc3c2)cc1` [Example 4.3, N-{4-[3-(morpholin-4-yl)quinoxalin-6-yl]phenyl}-2-phenylacetamide], for which the IC50 was found to be 10000 nM.
For `Oc1ccc(-c2ccc3ncc(N4CCN(c5cnccn5)CC4)nc3c2)cc1` [Example 3.17, 4-{3-[4-(pyrazin-2-yl)piperazin-1-yl]quinoxalin-6-yl}phenol], the IC50 amounted to 3870 nM.
Take `O=C(Cc1ccccn1)Nc1ccc(-c2ccc3ncc(N4CCN(c5ccncc5)CC4)nc3c2)cc1` [Example 7.6, 2-(pyridin-2-yl)-N-(4-{3-[4-(pyridin-4-yl)piperazin-1-yl]quinoxalin-6-yl}phenyl)acetamide]: the IC50 is 2790 nM.
For the molecule `O=C(NCc1ccccc1)Nc1ccc(-c2ccc3ncc(N4CCOCC4)nc3c2)cc1` [Example 6.6, 1-benzyl-3-{4-[3-(morpholin-4-yl)quinoxalin-6-yl]phenyl}urea], the IC50 is 10000 nM.
To `O=C(Cc1ccccc1)Nc1ccc(-c2ccc3ncc(N4CCN(Cc5cccnc5)CC4)nc3c2)cc1` [Example 9.1, 2-phenyl-N-{4-[3-(4-pyridin-3-ylmethyl-piperazin-1-yl)-quinoxalin-6-yl]-phenyl}-acetamide] belongs 3000 nM.
In the case of `O=C(CC1CC1)Nc1ccc(-c2ccc3ncc(N4CCN(c5ccncc5)CC4)nc3c2)cc1` [Example 7.7, 2-cyclopropyl-N-(4-{3-[4-(pyridin-4-yl)piperazin-1-yl]quinoxalin-6-yl}phenyl)acetamide], the IC50 was 1710 nM.
To `O=C(Nc1ccccc1)c1ccc(-c2ccc3ncc(N4CCCCC4)nc3c2)cc1` [Example 2.90, N-phenyl-4-[3-(piperidin-1-yl)quinoxalin-6-yl]benzamide] belongs 3000 nM; to `O=C(Nc1ccc(-c2ccc3ncc(N4CCN(c5ccncc5)CC4)nc3c2)cc1)NC1CC1` [Example 8.3, 1-cyclopropyl-3-(4-{3-[4-(pyridin-4-yl)piperazin-1-yl]quinoxalin-6-yl}phenyl)urea], 3000 nM; to `CC(=O)Nc1ccc(-c2ccc3ncc(N4CCOCC4)nc3c2)cc1` [Example 1.73, N-{4-[3-(morpholin-4-yl)quinoxalin-6-yl]phenyl}acetamide], 3000 nM.
As to `O=C(CCc1ccccc1)Nc1ccc(-c2ccc3ncc(N4CCN(c5ccncc5)CC4)nc3c2)cc1` [Example 7.4, 3-phenyl-N-(4-{3-[4-(pyridin-4-yl)piperazin-1-yl]quinoxalin-6-yl}phenyl)propanamide], the IC50 was 1430 nM.
On to `CC(C(=O)Nc1ccc(-c2ccc3ncc(N4CCN(c5ccncc5)CC4)nc3c2)cc1)c1ccccc1` (stereo not drawn) [Example 7.3, 2-phenyl-N-(4-{3-[4-(pyridin-4-yl)piperazin-1-yl]quinoxalin-6-yl}phenyl)propanamide], for which the IC50 turned out to be 2560 nM.
Take `CN1CCN(Cc2ccc(NC(=O)Nc3ccc(-c4ccc5ncc(N6CCOCC6)nc5c4)cc3)cc2C(F)(F)F)CC1` [Example 1.71, 1-{4-[(4-methylpiperazin-1-yl)methyl]-3-(trifluoromethyl)phenyl}-3-{4-[3-(morpholin-4-yl)quinoxalin-6-yl]phenyl}urea]: the IC50 was determined as 889 nM.
In the case of `O=C(Cc1ccccc1F)Nc1ccc(-c2ccc3ncc(N4CCN(Cc5cccnc5)CC4)nc3c2)cc1` [Example 9.2, 2-(2-fluorophenyl)-N-(4-{3-[4-(pyridin-3-ylmethyl)piperazin-1-yl]quinoxalin-6-yl}phenyl)acetamide] it was 3000 nM; in that of `O=C(Nc1ccc(-c2ccc3ncc(N4CCOCC4)nc3c2)cc1)Nc1cccnc1` [Example 6.8, 1-{4-[3-(morpholin-4-yl)quinoxalin-6-yl]phenyl}-3-pyridin-3-ylurea], 3930 nM.
For the molecule `O=C(Cc1ccccc1)Nc1ccc(-c2ccc3ncc(N4CCN(c5ccncc5)CC4)nc3c2)cc1` [Example 7.1, 2-phenyl-N-{4-[3-(4-pyridin-4-yl-piperazin-1-yl)-quinoxalin-6-yl]-phenyl}-acetamide], the IC50 was 2610 nM.
As to `O=C(Cc1ccccc1F)Nc1ccc(-c2ccc3ncc(N4CCN(c5ccncc5)CC4)nc3c2)cc1` [Example 7.2, 2-(2-fluorophenyl)-N-(4-{3-[4-(pyridin-4-yl)piperazin-1-yl]quinoxalin-6-yl}phenyl)acetamide], the IC50 was determined as 2840 nM.
Regarding `CNC(=O)c1ccc(-c2ccc3ncc(N4CCOCC4)nc3c2)cc1` [Example 1.47, N-methyl-4-[3-(morpholin-4-yl)quinoxalin-6-yl]benzamide], the IC50 was 3000 nM.
In the case of `Oc1ccc(-c2ccc3ncc(N4CCOCC4)nc3c2)cc1` [Example 3.5, 4-[3-(morpholin-4-yl)quinoxalin-6-yl]phenol] it was 2510 nM; in that of `O=C(Cc1cccc(C(F)(F)F)c1)Nc1ccc(-c2ccc3ncc(N4CCOCC4)nc3c2)cc1` [Example 4.13, N-{4-[3-(morpholin-4-yl)quinoxalin-6-yl]phenyl}-2-[3-(trifluoromethyl)phenyl]acetamide], 8120 nM; in that of `Oc1ccc(-c2ccc3ncc(N4CCN(c5ccncc5)CC4)nc3c2)cc1` [Example 3.15, 4-{3-[4-(pyridin-4-yl)piperazin-1-yl]quinoxalin-6-yl}phenol], 2920 nM.
Regarding `Cc1cc(-c2ccc3ncc(N4CCOCC4)nc3c2)cc(C)c1O` [Example 1.108, 2,6-dimethyl-4-[3-(morpholin-4-yl)quinoxalin-6-yl]phenol], the IC50 worked out at 2320 nM.
In the case of `CN1CCN(Cc2ccc(NC(=O)Nc3ccc(-c4ccc5ncc(N6CCCCC6)nc5c4)cc3)cc2C(F)(F)F)CC1` [Example 2.73, 1-{4-[(4-methylpiperazin-1-yl)methyl]-3-(trifluoromethyl)phenyl}-3-{4-[3-(piperidin-1-yl)quinoxalin-6-yl]phenyl}urea] it was 1120 nM; in that of `Oc1ccc(-c2ccc3ncc(N4CCN(Cc5cccnc5)CC4)nc3c2)cc1` [Example 3.35, 4-{3-[4-(pyridin-3-ylmethyl)piperazin-1-yl]quinoxalin-6-yl}phenol], 8250 nM.
